Data: US4205170A, “Propionic acid derivatives” (priority 1976, dated 1980)
Read-outs that look alike come from different tables or passages of the source.

System: edema in the hind paws (carrageenan)
Assay: carrageenan-induced hind paw edema, oral administration
Format: in vivo, male Wistar rats
Details: Rattus norvegicus; for inhibition in vivo at 8 mg/kg: 8 mg/kg orally
Procedure: That is, male Wistar rats weighing about 100 g, one group consisting of 5 to 7 animals, were given orally the compounds according to the present invention and then edema was induced in the hind paws by subcutaneous injections of 0.1 ml of 1% carrageenan 1 hour after the administration of the test compounds, and the volumes of the hind paws were measured by a volume differential meter.

[1] = 10 mg/kg orally, 1 hr, read-out: Inhibition (%) 1 hr
[2] = 10 mg/kg orally, 2 hr, read-out: Inhibition (%) 2 hr
[3] = 10 mg/kg orally, 3 hr, read-out: Inhibition (%) 3 hr
[4] = 10 mg/kg orally, 4 hr, read-out: Inhibition (%) 4 hr
[5] = 10 mg/kg orally, 5 hr, read-out: Inhibition (%) 5 hr
[6] = 10 mg/kg orally, 6 hr, read-out: Inhibition (%) 6 hr

Structure (SMILES)	inhibition in vivo at 10 mg/kg [1] [%]	inhibition in vivo at 10 mg/kg [2] [%]	inhibition in vivo at 10 mg/kg [3] [%]	inhibition in vivo at 10 mg/kg [4] [%]	inhibition in vivo at 10 mg/kg [5] [%]	inhibition in vivo at 10 mg/kg [6] [%]	further results
CC(C(=O)O)c1ccc2c(c1)C(=O)Cc1ccccc1O2 (stereo not drawn) [Compound 12, 2-(10,11-dihydro-11-oxodibenzo[b,f]oxepin-2-yl)-propionic acid]	–	–	–	–	–	–	inhibition in vivo at 10 mg/kg (1 h, read-out: Inhibition (%) 1 hr): 34.2%; inhibition in vivo at 10 mg/kg (2 h, read-out: Inhibition (%) 2 hr): 58.3%; inhibition in vivo at 10 mg/kg (3 h, read-out: Inhibition (%) 3 hr): 79.4%; inhibition in vivo at 10 mg/kg (4 h, read-out: Inhibition (%) 4 hr): 83.1%; inhibition in vivo at 10 mg/kg (5 h, read-out: Inhibition (%) 5 hr): 71.1%; inhibition in vivo at 10 mg/kg (6 h, read-out: Inhibition (%) 6 hr): 51.4%
CC(C(=O)O)c1ccc2c(c1)CCc1ccccc1O2 (stereo not drawn) [Compound 13, 2-(10,11-dihydrodibenzo[b,f]oxepin-2-yl)-propionic acid]	42.4	55.5	65.4	63.3	49.1	33.3	–
CCOC(=O)C(C)c1ccc2c(c1)CCc1ccccc1O2 (stereo not drawn) [Compound 14, Ethyl 2-(10,11-dihydrodibenzo[b,f]oxepin-2-yl)-propionate]	48.6	67.6	60.3	53.2	35.8	26	–
CC(C(N)=O)c1ccc2c(c1)CCc1ccccc1O2 (stereo not drawn) [Compound 15, 2-(10,11-dihydrodibenzo[b,f]oxepin-2-yl)-propionamide]	36.1	44.1	53.3	48.7	33	27.2	–
CC(C(=O)O)c1ccc2c(c1)Oc1ccccc1CC2=O (stereo not drawn) [Compound 16, 2-(10,11-dihydro-11-oxodibenzo[b,f]oxepin-3-yl)-propionic acid]	53.6	49.9	50.7	46.2	37	26.2	–
CC(C(N)=O)c1cccc2c1Oc1ccccc1CC2=O (stereo not drawn) [Compound 17, 2-(10,11-dihydro-11-oxodibenzo[b,f]oxepin-4-yl)-propionamide]	65.9	49.4	35.4	29	17.2	13	–
CC(C(=O)O)c1cccc2c1Oc1ccccc1CC2=O (stereo not drawn) [Compound 18, 2-(10,11-dihydro-11-oxodibenzo[b,f]oxepin-4-yl)-propionic acid]	–	–	–	–	–	–	inhibition in vivo at 8 mg/kg (1 hr, read-out: Inhibition (%) 1 hr): 34.3%; inhibition in vivo at 8 mg/kg (2 hr, read-out: Inhibition (%) 2 hr): 36.4%; inhibition in vivo at 8 mg/kg (3 hr, read-out: Inhibition (%) 3 hr): 38.3%; inhibition in vivo at 8 mg/kg (4 hr, read-out: Inhibition (%) 4 hr): 36.1%; inhibition in vivo at 8 mg/kg (5 hr, read-out: Inhibition (%) 5 hr): 36.1%; inhibition in vivo at 8 mg/kg (6 hr, read-out: Inhibition (%) 6 hr): 35.1%
CC(C(=O)O)c1cccc2c1Oc1ccccc1CC2 (stereo not drawn) [Compound 19, 2-(10,11-dihydrodibenzo[b,f]oxepin-4-yl)-propionic acid]	45.1	51.3	28.2	25.1	18.7	10.2	–
CC(C(=O)O)c1ccc2c(c1)C(=O)Cc1cccnc1S2 (stereo not drawn) [Compound 20, 2-(5,6-dihydro-6-oxobenzo[b]pyrido[3,2-f]thiepin-8-yl)-propionic acid]	45	54.3	47.5	33.8	28.9	24.3	–
CC(C(=O)O)c1ccc2c(c1)CCc1cccnc1S2 (stereo not drawn) [Compound 21, 2-(5,6-dihydrobenzo[b]pyrido[3,2-f]thiepin-8-yl)-propionic acid]	69.5	75.6	69	67	70.3	64.6	–
CCOC(=O)C(C)c1ccc2c(c1)CCc1cccnc1S2 (stereo not drawn) [Compound 22, Ethyl 2-(5,6-dihydrobenzo[b]pyrido[3,2-f]thiepin-8-yl)-propionate]	29.6	51.7	59.1	57	45.9	42.8	–
